Data on 7 compounds can be found in US20030186345A1, “Macromolecular enzyme substrates” (priority 2003, published 2003).

*1 amine or outer side, *2 acyl side, *3 side chain or, on linkers, in order; H or OH if unused. Where a SMILES comes first, the peptide text is derived from it. [ ]: non-standard residue; d: D form. The star is where a group is joined. pNA = O=[N+]([O-])c1ccc(N*)cc1; Suc = O=C(CCC(=O)[*:2])[*:1]

Data set [1] has as its target T1, thrombin (Homo sapiens, UniProt P00734). Nature of the data set: Cleavage of pNA substrates by thrombin, kinetic parameters. Type of data set: biochemical. Details: Human thrombin, bovine chymotrypsin; purchased Sigma Chemical Co. (St. Louis, Mo.). The note with it: 37° C.; means of triplicates.
Procedure: Measurements of protease activity at 25° C. or 37° C. were performed and analyzed as previously described (Hortin and Trimpe, J. Biol. Chem. 266:6866-6871, 1991) with a Cobas FARA analyzer (Roche Diagnostic Systems, Somerville, N.J.). […] Kinetic parameters were calculated from initial rates of reactions using Lineweaver-Burke plots. […] These reactions were performed in 100 mM tris(hydroxymethyl)-aminomethane pH 7.8 with 10 mm CaCl2. Substrate concentration were determined by absorbance at 342 nm, using an extinction coefficient of 8,260 mol^−1 and several concentrations were confirmed by absorbance measures at 405 or 410 nm after substrate hydrolysis, with extinction coefficient of 9,900 or 8,600 mol^−1, respectively, for the p-nitroaniline product (Lottenberg and Jackson, Biochim. Biophys. Acta 742:558-564, 1983). Molar concentration of chymotrypsin was determined by active site titration with p-nitrophenyl guanidinobenzoate and thrombin concentrations by titration with highly purified hirudin.
For the next data set, the target named is T2, trypsin (Bos taurus, UniProt P00760).
T2 construct: purchased Worthington Biochemicals Co. (trypsin); Calbiochem (α2-macroglobulin)
T2 sequence (P00760 24-246): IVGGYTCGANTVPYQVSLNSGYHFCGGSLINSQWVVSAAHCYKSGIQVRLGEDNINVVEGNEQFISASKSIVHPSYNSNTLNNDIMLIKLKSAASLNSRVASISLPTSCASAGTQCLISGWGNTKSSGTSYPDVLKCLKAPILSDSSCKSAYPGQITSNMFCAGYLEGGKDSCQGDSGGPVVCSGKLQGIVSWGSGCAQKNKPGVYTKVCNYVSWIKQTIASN
The data set is described as follows: Inhibition of substrate cleavage by α2-macroglobulin, trypsin. It is filed as biochemical, bovine. The settings on record: excess inhibitor.

Data set [2] deals with T1, thrombin. Nature of the data set: Inhibition of substrate cleavage by α2-macroglobulin, thrombin. Also noted: Human thrombin, bovine chymotrypsin; purchased Sigma Chemical Co. (thrombin); Calbiochem (α2-macroglobulin). Type of data set: biochemical. The settings on record: excess inhibitor.
Procedure: Measurements of protease activity at 25° C. or 37° C. were performed and analyzed as previously described (Hortin and Trimpe, J. Biol. Chem. 266:6866-6871, 1991) with a Cobas FARA analyzer (Roche Diagnostic Systems, Somerville, N.J.). […] Kinetic parameters were calculated from initial rates of reactions using Lineweaver-Burke plots. […] These reactions were performed in 100 mM tris(hydroxymethyl)-aminomethane pH 7.8 with 10 mm CaCl2. Substrate concentration were determined by absorbance at 342 nm, using an extinction coefficient of 8,260 mol^−1 and several concentrations were confirmed by absorbance measures at 405 or 410 nm after substrate hydrolysis, with extinction coefficient of 9,900 or 8,600 mol^−1, respectively, for the p-nitroaniline product (Lottenberg and Jackson, Biochim. Biophys. Acta 742:558-564, 1983). […] Trypsin concentration was estimated based on weight, assuming 100% activity. For studies of trypsin and thrombin, α2-macro-globulin was pretreated with a 200-fold molar excess of p-amidinophenylmethyl-sulfonylfluoride in order to inactivate any protease trapped within the inhibitor and left at 4° C. for 72 hours before use to allow complete decay of the sulfonylfluoride.
The target of data set [3] is T3, pancreatic amylase (Homo sapiens, UniProt P04746).
T3 construct: purchased Scripps Laboratories (San Diego, Calif.)
T3 sequence (P04746 16-511): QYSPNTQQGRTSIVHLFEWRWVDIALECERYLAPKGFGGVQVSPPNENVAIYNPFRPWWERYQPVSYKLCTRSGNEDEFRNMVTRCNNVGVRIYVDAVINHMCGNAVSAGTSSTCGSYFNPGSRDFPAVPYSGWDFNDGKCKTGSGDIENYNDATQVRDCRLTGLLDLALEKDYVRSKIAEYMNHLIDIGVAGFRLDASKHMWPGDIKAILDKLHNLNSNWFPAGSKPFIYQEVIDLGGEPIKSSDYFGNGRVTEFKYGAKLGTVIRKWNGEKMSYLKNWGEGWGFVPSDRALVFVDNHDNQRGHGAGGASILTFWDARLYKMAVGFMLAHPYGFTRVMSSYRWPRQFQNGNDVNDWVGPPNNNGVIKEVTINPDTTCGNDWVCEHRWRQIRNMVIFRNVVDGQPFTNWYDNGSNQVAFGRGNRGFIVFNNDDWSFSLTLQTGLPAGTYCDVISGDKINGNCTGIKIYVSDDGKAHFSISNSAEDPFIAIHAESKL
The data set is described as follows: Immunoinhibition by MABs, pancreatic amylase, oligosaccharide substrates. The note with it: pancreatic isoenzyme, 40 U/I (G5, G7 substrates) or 400 U/I (G3 substrates), 100% = no MAB. It is filed as biochemical. Here is the method: (§1) Amylase assays using oligosaccharide substrates were automated using a Cobas Fara analyzer (Roche, Basel, Switzerland). Unless indicated, assay temperature was 37° C., and absorbance changes were measured at 405 nm every minute over a 20 minute period. Assay buffer was either 52.5 mmol/L 4-(2-hydroxyethyl)-1-piperazine-ethanesulfonic acid (HEPES) buffer, pH 7.15, 87 mmol/L sodium chloride, 12.6 mmol/L magnesium chloride, 0.075 mmol/L calcium chloride (HEPES buffer) or 50 mmol/L MES, pH 6.0, 350 mmol/L sodium chloride, 6 mmol/L calcium acetate, 900 mmol/L KSCN (MES buffer). Amylases were diluted into assay buffer containing 1 mg/mL rabbit albumin. Final reaction volumes were 200 μL and consisted of 3 solutions, R1, R2, and R3. […] Depending upon the assay, R2 and R3 contained either amylase or substrate. R1 and R2 solutions were mixed for 10 seconds prior to the addition of R3. For immunoinhibition studies, antibodies were preincubated with amylase (R2) for 30 minutes at room temperature prior to the addition of substrate (R3). Unless indicated, final concentrations of MABs were 10 mg/L. Reaction blanks were determined by measuring the absorbance of substrate or enzyme alone at 405 nm. When EtG7pNP or mPEG-EtG7pNP were used as substrates, α-glucosidase was included in the blank measurement. Differences between the test samples and reagent blanks were determined. Activity of stock solutions of amylase was based on activity measured with a Hitachi 917 analyzer using a Roche kit (Cat. No 1876473) (Indianapolis, Ind.) which uses EtG7pNP as the substrate. For Km determinations, 4 or 5 different substrate concentrations (0.05 mmol/L to 6 mmol/L) with salivary (4-20 U/L) or pancreatic (4-40 U/L) amylase were used.

Data set [4] concerns the target T3, pancreatic amylase. The data set is described as follows: Amylase assay, Km determination, pancreatic amylase. It is filed as biochemical. The settings on record: 37° C.; HEPES buffer pH 7.15. Here is the method: as §1, with “Assay buffer was either 52.5 mmol/L 4-(2-hydroxyethyl)-1-piperazine-ethanesulfonic acid (HEPES) buffer, pH 7.15, 87 mmol/L sodium chloride, 12.6 mmol/L magnesium chloride, 0.075 mmol/L calcium chloride (HEPES buffer) or 50 mmol/L MES, pH 6.0, 350 mmol/L sodium chloride, 6 mmol/L calcium acetate, 900 mmol/L KSCN (MES buffer).” left out

The target of data set [5] is T4, salivary amylase (Homo sapiens, UniProt P0DUB6).
T4 construct: purchased Sigma (St. Louis, Mo.)
T4 sequence (P0DUB6 16-511): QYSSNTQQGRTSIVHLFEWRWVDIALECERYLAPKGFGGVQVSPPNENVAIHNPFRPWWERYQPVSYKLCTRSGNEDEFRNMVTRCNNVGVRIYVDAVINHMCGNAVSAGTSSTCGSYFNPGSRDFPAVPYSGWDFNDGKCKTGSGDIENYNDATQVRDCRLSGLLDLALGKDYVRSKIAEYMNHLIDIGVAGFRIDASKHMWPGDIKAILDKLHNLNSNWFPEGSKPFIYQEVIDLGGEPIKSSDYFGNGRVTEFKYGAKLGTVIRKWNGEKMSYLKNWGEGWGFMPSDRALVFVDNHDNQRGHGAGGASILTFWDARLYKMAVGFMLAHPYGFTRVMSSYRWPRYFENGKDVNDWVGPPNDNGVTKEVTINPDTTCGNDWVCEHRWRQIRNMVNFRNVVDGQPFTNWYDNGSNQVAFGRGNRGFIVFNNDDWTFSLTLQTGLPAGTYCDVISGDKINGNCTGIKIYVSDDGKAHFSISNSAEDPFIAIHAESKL
Nature of the data set: Immunoinhibition by MABs, salivary amylase, oligosaccharide substrates. The settings on record: salivary isoenzyme, 20 U/I (G5, G7 substrates) or 600 U/I (G3 substrates), 100% = no MAB. It is filed as biochemical. The procedure:
as §1
When both MABs were used, MAB 88E8 concentrations were varied in the presence of 10 mg/L MAB 66C7. At an antibody concentration of 10 mg/L, MAB 88E8 inhibits 98% of salivary amylase activity in HEPES buffer and 34% of salivary amylase activity in MES buffer. MAB 66C7 increases salivary amylase activity in HEPES buffer and has no effect on salivary amylase activity in MES buffer. Using a mixture of MABs 88E8 and 66C7 at concentrations of […], >99% of salivary amylase activity is inhibited in HEPES buffer and 73% of salivary amylase activity is inhibited in MES buffer. When the pH of the MES buffer was increased from 6.0 to 6.5 and the concentration of KSCN was decreased from 900 mmol/L to 300 mmol/L, >97% of salivary amylase activity was inhibited by MAB 88E8.

Data set [6] deals with T4, salivary amylase. Nature of the data set: Amylase assay, Km determination, salivary amylase. The settings on record: 37° C.; HEPES buffer pH 7.15. It is filed as biochemical. The procedure: as §1
The next data set deals with chymotrypsin (Bos taurus, UniProt P00766). The data set is described as follows: Inhibition of substrate cleavage by α2-macroglobulin, chymotrypsin.
The test system of data set [7] is C[C@H](NC(=O)CCC(=O)O)C(=O)N[C@@H](C)C(=O)N1CCC[C@H]1C(=O)N[C@@H](Cc1ccccc1)C(=O)Nc1ccc([N+](=O)[O-])cc1. The data set is described as follows: purified protein, by the assay type. The note with it: other: 37° C., means of triplicates, pH 7.8.
For the next data set, the target named is T5, 20S proteasomes (Methanosarcina thermophila, UniProt Q9P992).
T5 construct: purchased Calbiochem (La Jolla, Calif.); host or cells: Escherichia coli
T5 sequence (Q9P992 10-210): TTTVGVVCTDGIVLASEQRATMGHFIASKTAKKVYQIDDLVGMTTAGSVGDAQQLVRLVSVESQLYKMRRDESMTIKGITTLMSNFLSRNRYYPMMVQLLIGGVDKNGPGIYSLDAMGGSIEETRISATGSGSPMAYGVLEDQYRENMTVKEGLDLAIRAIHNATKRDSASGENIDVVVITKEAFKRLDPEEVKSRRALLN
T5 sequence (Q59565 1-247 partner): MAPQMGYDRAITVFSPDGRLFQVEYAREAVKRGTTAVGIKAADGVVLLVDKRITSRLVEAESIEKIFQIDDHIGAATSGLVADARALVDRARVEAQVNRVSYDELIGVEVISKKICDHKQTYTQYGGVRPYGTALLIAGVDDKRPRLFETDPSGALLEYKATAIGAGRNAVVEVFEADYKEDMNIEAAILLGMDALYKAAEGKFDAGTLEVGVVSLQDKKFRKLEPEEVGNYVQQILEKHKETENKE
The data set is described as follows: Substrate cleavage by 20S proteasomes. Type of data set: biochemical. Here is the method:
Enzyme assays. Assays of proteasome activity were performed at 37° C. unless otherwise indicated. […] Reactions were in a buffer consisting of 100 mM Tris(hydroxymethyl)aminomethane, pH 7.2 with 1 mM dithiothreitol.

Procedure for chymotrypsin: Measurements of protease activity at 25° C. or 37° C. were performed and analyzed as previously described (Hortin and Trimpe, J. Biol. Chem. 266:6866-6871, 1991) with a Cobas FARA analyzer (Roche Diagnostic Systems, Somerville, N.J.). […] Kinetic parameters were calculated from initial rates of reactions using Lineweaver-Burke plots. […] These reactions were performed in 100 mM tris(hydroxymethyl)-aminomethane pH 7.8 with 10 mm CaCl2. Substrate concentration were determined by absorbance at 342 nm, using an extinction coefficient of 8,260 mol^−1 and several concentrations were confirmed by absorbance measures at 405 or 410 nm after substrate hydrolysis, with extinction coefficient of 9,900 or 8,600 mol^−1, respectively, for the p-nitroaniline product (Lottenberg and Jackson, Biochim. Biophys. Acta 742:558-564, 1983). Molar concentration of chymotrypsin was determined by active site titration with p-nitrophenyl guanidinobenzoate and thrombin concentrations by titration with highly purified hirudin. Trypsin concentration was estimated based on weight, assuming 100% activity. For studies of trypsin and thrombin, α2-macro-globulin was pretreated with a 200-fold molar excess of p-amidinophenylmethyl-sulfonylfluoride in order to inactivate any protease trapped within the inhibitor and left at 4° C. for 72 hours before use to allow complete decay of the sulfonylfluoride.

The term Km denotes the substrate concentration at which the rate is half of its maximum. As to `CC(=O)N[C@H](Cc1ccccc1)C(=O)N1CCCC[C@H]1C(=O)N[C@@H](CCCNC(=N)N)C(=O)Nc1ccc([N+](=O)[O-])cc1` [Ac-D-Phe-Pip-Arg-pNA], on thrombin [1], the Km was 23 µM and the kcat came to 3.0 S^−1.
Turning to `CC[C@@H](C)[C@@H](N)C(=O)N1CCC[C@H]1C(=O)N[C@@H](CCCNC(=N)N)C(=O)Nc1ccc([N+](=O)[O-])cc1` [D-Ile-Pro-Arg-pNA] (H-[dI]-Pro-Arg-pNA), at trypsin, the “Inhibition of trypsin activity by excess α2-macroglobulin” value is listed as 40-50%. At thrombin [1], the Km was 12 µM and the kcat is on record as 105 S^−1.
In the case of `N=C(N)NCCC[C@H](NC(=O)[C@@H]1CCCCN1C(=O)[C@H](N)Cc1ccccc1)C(=O)Nc1ccc([N+](=O)[O-])cc1` [D-Phe-Pip-Arg-pNA], the “Inhibition of thrombin activity by excess α2-macroglobulin” value on thrombin [2] is reported as 40-50%. In addition, at thrombin [1], the Km stood at 6.1 µM and the kcat worked out at 65 S^−1.
For `O=[N+]([O-])c1ccc(OC2OC(CO)C(OC3OC(CO)C(OC4OC(CO)C(OC5OC(CO)C(OC6OC(CO)C(O)C(O)C6O)C(O)C5O)C(O)C4O)C(O)C3O)C(O)C2O)cc1` [Substrate G5pNP, p-nitrophenyl-α-D-maltopentaoside], the “% activity with MAB 88E8 + 66C7” value on pancreatic amylase [3] amounted to 95%; on salivary amylase [5], 2%. Moreover, the “% activity with MAB 66C7” value is recorded as 103% on pancreatic amylase [3] (MAB 10 mg/L) and 105% on salivary amylase [5] (MAB 10 mg/L). Besides, the “% activity with MAB 88E8” value is on record as 101% at pancreatic amylase [3] (MAB 10 mg/L) and 6% on salivary amylase [5] (MAB 10 mg/L). Further, the Km was 280 µM on pancreatic amylase [4] and 400 µM on salivary amylase [6].
For `C[C@H](NC(=O)CCC(=O)O)C(=O)N[C@@H](C)C(=O)N1CCC[C@H]1C(=O)N[C@@H](Cc1ccccc1)C(=O)Nc1ccc([N+](=O)[O-])cc1` [Suc-Ala-Ala-Pro-Phe-pNA, succinyl-Ala-Ala-Pro-Phe-pNA] (Suc-AAPF-pNA), the “Maximal inhibition of chymotrypsin activity by excess α2-macroglobulin” value at chymotrypsin (increasing α2-macroglobulin added to a fixed amount of chymotrypsin) was “about 60%”.
What is called kcat/Km is the turnover number divided by the Michaelis constant. Take bovine chymotrypsin (Bos taurus): in data set [7], the Km was found to be 40 µM, the kcat worked out at 120 s⁻¹ and the catalytic efficiency (kcat/Km) was determined as 3e+06 M⁻¹ s⁻¹.
Regarding “succinyl-Ala-Ala-Phe-p-nitroanilide [Suc-Ala-Ala-Phe-pNA]”, the “Rate of substrate cleavage by 20s proteasomes” value on 20S proteasomes (each substrate at 1 mM, 37° C., mean ± SD) is recorded as 0.0061 ± 0.0001 ΔA405/10 min. The “Rate of cleavage greater than Ala-Ala-Phe-pNA” value at 20S proteasomes (substrate 0.5-3 mM, 30-50° C.) was 50-100%. The “Rate Plus α2-M” value at chymotrypsin (chymotrypsin 2.5 μg/ml, 0.5 mM substrate, after incubation with excess α2-macroglobulin (250 μ/ml), means ± SD) came out at 12.3 ± 0.1 µmol/L/min. Moreover, the “Rate Minus α2-M” value on chymotrypsin (chymotrypsin 2.5 μg/ml, 0.5 mM substrate, before incubation with α2-macroglobulin, means ± SD) was 21.7 ± 0.2 µmol/L/min. For the same compound, the “Inhibition of substrate cleavage by α2-macroglobulin” value at chymotrypsin (chymotrypsin 2.5 μg/ml, 0.5 mM substrate, excess α2-macroglobulin) worked out at 43%.
